From the NIST ThermoML archive (doi:10.1021/je400733m)
Numbers after ± are expanded uncertainties.

Conditions: for vapor or sublimation pressure: Liquid; for mass density: Gas, isochoric method

F [hydrogen fluoride]
Conditions	vapor or sublimation pressure [kPa]
293.12 K	102.1 ± 4
303.13 K	145.3 ± 4
313.16 K	202.1 ± 4.1
323.08 K	274.7 ± 4.2
333.13 K	368.7 ± 4.4
343.1 K	487.1 ± 4.7
353.14 K	636.4 ± 5.1
363.17 K	822.2 ± 5.7
373.14 K	1048.5 ± 6.4
383.21 K	1327.1 ± 7.3
393.11 K	1659.3 ± 8.4
403.1 K	2060.2 ± 9.7
413.14 K	2541.3 ± 11
423.14 K	3111.5 ± 13
433.06 K	3778.1 ± 15
443.01 K	4566 ± 18
454.15 K	5611.6 ± 19

Conditions	mass density [kg/m3]
293.15 K, 27.7 kPa	0.232 ± 0.08
293.15 K, 29 kPa	0.245 ± 0.082
293.15 K, 31.8 kPa	0.282 ± 0.086
293.15 K, 34.5 kPa	0.32 ± 0.089
293.15 K, 37.2 kPa	0.36 ± 0.082
293.15 K, 41.5 kPa	0.438 ± 0.1
293.15 K, 55.5 kPa	0.802 ± 0.13
293.15 K, 69.3 kPa	1.311 ± 0.16
293.15 K, 83.3 kPa	1.954 ± 0.18
293.15 K, 98.6 kPa	2.86 ± 0.2
303.15 K, 26.4 kPa	0.212 ± 0.043
303.15 K, 29.4 kPa	0.239 ± 0.046
303.15 K, 34.2 kPa	0.283 ± 0.045
303.15 K, 38 kPa	0.32 ± 0.053
303.15 K, 41.5 kPa	0.356 ± 0.052
303.15 K, 45.1 kPa	0.395 ± 0.052
303.15 K, 52.7 kPa	0.491 ± 0.063
303.15 K, 64.8 kPa	0.694 ± 0.082
303.15 K, 78 kPa	0.999 ± 0.1
303.15 K, 90 kPa	1.359 ± 0.13
303.15 K, 102.6 kPa	1.818 ± 0.15
303.15 K, 114.8 kPa	2.327 ± 0.18
303.15 K, 126.7 kPa	2.883 ± 0.19
303.15 K, 141.6 kPa	3.802 ± 0.22
313.15 K, 29.3 kPa	0.227 ± 0.037
313.15 K, 35.9 kPa	0.28 ± 0.038
313.15 K, 36.4 kPa	0.28 ± 0.038
313.15 K, 39.6 kPa	0.307 ± 0.039
313.15 K, 41.4 kPa	0.326 ± 0.039
313.15 K, 42.5 kPa	0.331 ± 0.039
313.15 K, 48.3 kPa	0.385 ± 0.04
313.15 K, 53.3 kPa	0.426 ± 0.041
313.15 K, 55.1 kPa	0.447 ± 0.041
313.15 K, 57 kPa	0.461 ± 0.044
313.15 K, 62.1 kPa	0.51 ± 0.045
313.15 K, 68.9 kPa	0.59 ± 0.047
313.15 K, 74 kPa	0.644 ± 0.049
313.15 K, 82.8 kPa	0.767 ± 0.063
313.15 K, 90.7 kPa	0.883 ± 0.069
313.15 K, 96.6 kPa	0.992 ± 0.082
313.15 K, 109.1 kPa	1.246 ± 0.089
313.15 K, 110.3 kPa	1.285 ± 0.1
313.15 K, 124.3 kPa	1.653 ± 0.11
313.15 K, 129.3 kPa	1.787 ± 0.11
313.15 K, 138 kPa	2.078 ± 0.14
313.15 K, 148 kPa	2.417 ± 0.14
313.15 K, 152 kPa	2.579 ± 0.15
313.15 K, 165.7 kPa	3.118 ± 0.14
313.15 K, 165.8 kPa	3.133 ± 0.14
313.15 K, 180.3 kPa	3.777 ± 0.16
313.15 K, 180.5 kPa	3.797 ± 0.16
323.15 K, 55 kPa	0.422 ± 0.039
323.15 K, 100.9 kPa	0.842 ± 0.043
323.15 K, 117.9 kPa	1.05 ± 0.062
323.15 K, 156.9 kPa	1.731 ± 0.082
323.15 K, 181.4 kPa	2.343 ± 0.11
323.15 K, 204.5 kPa	3.061 ± 0.12
323.15 K, 228.7 kPa	3.949 ± 0.13
333.15 K, 29.2 kPa	0.218 ± 0.035
333.15 K, 99.9 kPa	0.759 ± 0.033
333.15 K, 112.6 kPa	0.863 ± 0.041
333.15 K, 142.2 kPa	1.147 ± 0.048
333.15 K, 163.7 kPa	1.386 ± 0.042
333.15 K, 180 kPa	1.61 ± 0.035
333.15 K, 199.2 kPa	1.904 ± 0.085
333.15 K, 222.8 kPa	2.36 ± 0.1
333.15 K, 234.8 kPa	2.612 ± 0.093
333.15 K, 246.2 kPa	2.902 ± 0.088
333.15 K, 270.8 kPa	3.552 ± 0.12
333.15 K, 276.4 kPa	3.753 ± 0.12
333.15 K, 305.8 kPa	4.693 ± 0.14
333.15 K, 317.3 kPa	5.162 ± 0.16
333.15 K, 341.5 kPa	6.088 ± 0.15
333.15 K, 343.5 kPa	6.229 ± 0.16
343.15 K, 24.6 kPa	0.179 ± 0.034
343.15 K, 67.3 kPa	0.488 ± 0.035
343.15 K, 141.7 kPa	1.05 ± 0.04
343.15 K, 244.7 kPa	2.094 ± 0.051
343.15 K, 289.6 kPa	2.791 ± 0.071
343.15 K, 340.6 kPa	3.856 ± 0.097
343.15 K, 375.4 kPa	4.777 ± 0.12
343.15 K, 414.8 kPa	6.034 ± 0.14
343.15 K, 455.3 kPa	7.553 ± 0.15
353.15 K, 50.5 kPa	0.352 ± 0.034
353.15 K, 118.5 kPa	0.833 ± 0.034
353.15 K, 189 kPa	1.359 ± 0.037
353.15 K, 279.3 kPa	2.154 ± 0.043
353.15 K, 334.2 kPa	2.782 ± 0.057
353.15 K, 391.1 kPa	3.617 ± 0.063
353.15 K, 450.1 kPa	4.75 ± 0.091
353.15 K, 509 kPa	6.216 ± 0.12
353.15 K, 583.5 kPa	8.604 ± 0.14
363.15 K, 78.7 kPa	0.523 ± 0.033
363.15 K, 151.2 kPa	1.024 ± 0.034
363.15 K, 268.6 kPa	1.886 ± 0.036
363.15 K, 349.7 kPa	2.574 ± 0.042
363.15 K, 435.2 kPa	3.463 ± 0.053
363.15 K, 519.5 kPa	4.617 ± 0.071
363.15 K, 610.3 kPa	6.318 ± 0.1
363.15 K, 704.7 kPa	8.73 ± 0.12
363.15 K, 792.4 kPa	11.696 ± 0.15
373.15 K, 59.5 kPa	0.389 ± 0.032
373.15 K, 135.1 kPa	0.89 ± 0.033
373.15 K, 249.7 kPa	1.674 ± 0.034
373.15 K, 360.6 kPa	2.495 ± 0.036
373.15 K, 444.9 kPa	3.191 ± 0.04
373.15 K, 555.7 kPa	4.277 ± 0.047
373.15 K, 661.8 kPa	5.611 ± 0.07
373.15 K, 768.8 kPa	7.405 ± 0.098
373.15 K, 872.6 kPa	9.733 ± 0.12
373.15 K, 971.7 kPa	12.608 ± 0.13
383.15 K, 109.3 kPa	0.69 ± 0.032
383.15 K, 256.8 kPa	1.656 ± 0.033
383.15 K, 388.4 kPa	2.569 ± 0.034
383.15 K, 518.3 kPa	3.557 ± 0.038
383.15 K, 666.4 kPa	4.865 ± 0.044
383.15 K, 794.6 kPa	6.263 ± 0.057
383.15 K, 928.9 kPa	8.187 ± 0.074
383.15 K, 1067 kPa	10.825 ± 0.097
383.15 K, 1201 kPa	14.245 ± 0.12
393.15 K, 172.3 kPa	1.108 ± 0.032
393.15 K, 337.7 kPa	2.178 ± 0.032
393.15 K, 505.5 kPa	3.335 ± 0.034
393.15 K, 674.9 kPa	4.611 ± 0.037
393.15 K, 840.7 kPa	6.052 ± 0.042
393.15 K, 1013 kPa	7.764 ± 0.062
393.15 K, 1175 kPa	10.132 ± 0.08
393.15 K, 1344 kPa	13.239 ± 0.096
393.15 K, 1498 kPa	17.048 ± 0.13
403.15 K, 240.6 kPa	1.492 ± 0.032
403.15 K, 449.3 kPa	2.829 ± 0.032
403.15 K, 652.2 kPa	4.216 ± 0.034
403.15 K, 862.3 kPa	5.791 ± 0.038
403.15 K, 1069 kPa	7.588 ± 0.044
403.15 K, 1278 kPa	9.802 ± 0.055
403.15 K, 1491 kPa	12.74 ± 0.072
403.15 K, 1709 kPa	16.83 ± 0.12
403.15 K, 1897 kPa	21.668 ± 0.16
413.15 K, 222.3 kPa	1.32 ± 0.031
413.15 K, 371.4 kPa	2.232 ± 0.031
413.15 K, 508.9 kPa	3.095 ± 0.031
413.15 K, 683.2 kPa	4.229 ± 0.033
413.15 K, 883.6 kPa	5.621 ± 0.034
413.15 K, 1059 kPa	6.93 ± 0.037
413.15 K, 1234 kPa	8.38 ± 0.044
413.15 K, 1399 kPa	9.914 ± 0.051
413.15 K, 1557 kPa	11.607 ± 0.049
413.15 K, 1728 kPa	13.746 ± 0.074
413.15 K, 2034 kPa	18.831 ± 0.082
413.15 K, 2223 kPa	23.108 ± 0.12
433.15 K, 309.8 kPa	1.785 ± 0.03
433.15 K, 698.6 kPa	4.1 ± 0.031
433.15 K, 1068.9 kPa	6.452 ± 0.033
433.15 K, 1452 kPa	9.113 ± 0.036
433.15 K, 1847 kPa	12.286 ± 0.042
433.15 K, 2258 kPa	16.303 ± 0.056
433.15 K, 2635 kPa	21.034 ± 0.074
433.15 K, 3001 kPa	27.275 ± 0.12
433.15 K, 3365 kPa	36.362 ± 0.16
433.15 K, 3703 kPa	50.976 ± 0.26
453.15 K, 476.5 kPa	2.703 ± 0.03
453.15 K, 1014 kPa	5.793 ± 0.031
453.15 K, 1550 kPa	9.121 ± 0.033
453.15 K, 2081 kPa	12.797 ± 0.037
453.15 K, 2621 kPa	17.077 ± 0.048
453.15 K, 3133 kPa	21.99 ± 0.078
453.15 K, 3651 kPa	28.309 ± 0.22
453.15 K, 4173 kPa	36.974 ± 0.14
453.15 K, 4738 kPa	51.158 ± 0.29
453.15 K, 5189 kPa	73.046 ± 0.31
473.15 K, 398.6 kPa	2.061 ± 0.029
473.15 K, 719.1 kPa	3.785 ± 0.029
473.15 K, 1113 kPa	5.969 ± 0.03
473.15 K, 1557 kPa	8.541 ± 0.031
473.15 K, 1986 kPa	11.159 ± 0.033
473.15 K, 2275 kPa	13.033 ± 0.034
473.15 K, 2590 kPa	15.167 ± 0.038
473.15 K, 2992 kPa	18.107 ± 0.045
473.15 K, 3473 kPa	22.184 ± 0.059
473.15 K, 4349 kPa	30.552 ± 0.089
473.15 K, 4995 kPa	38.609 ± 0.31
473.15 K, 5640 kPa	49.429 ± 0.33
473.15 K, 6393 kPa	68.899 ± 0.21
473.15 K, 7041 kPa	98.187 ± 0.3
